Results reported in publication PMC10135378, “Synthesis of Novel N-Heterocyclic Carbene-Ruthenium (II) Complexes, “Precious” Tools with Antibacterial, Anticancer and Antioxidant Properties” (Antibiotics, 2023).

Columns and labels:
[1] = Conductivity measurements (hydrolytic stability); assay type: physicochemical; conditions: DMSO/H2O 90/10, solutions about 10^−3 M, room temperature
Description: The proposed structures and hydrolytic stability were supported by conductivity measurements (solutions about 10^−3 M); in fact, the conductance values for the Ru compounds I, IV, V, and VI determined in DMSO/H2O 90/10 are substantially independent of the concentration, which is close to zero. […] This was attributed to the presence of a small amount of sodium iodide in the sample (about 10 mol%).
The NMR spectra were recorded on a Bruker AM 250 spectrometer (250 MHz for ^1H; 62.5 MHz for ^13C), a Bruker AM 300 spectrometer (300 MHz for ^1H; 75 MHz for ^13C), and a Bruker AVANCE 400 spectrometer (400 MHz for ^1H; 100 MHz for ^13C; 161.97 MHz for ^31P; 376 MHz for ^19F). NMR samples were prepared by solubilizing about 15 mg of compound in 0.5 mL of deuterated solvent. The ^1H and ^13C NMR chemical shifts are referenced to SiMe4 (δ = 0 ppm) using the residual proton impurities of the deuterated solvents as internal standards. ^1H NMR spectra are referenced using the residual solvent peak δ 2.50 for DMSO-d6 and δ 7.27 for CDCl3. ^13C NMR spectra are referenced using the residual solvent peak at δ 39.51 for DMSO-d6 and δ 77.23 for CDCl3. Multiplicities are abbreviated as follows: singlet (s), doublet (d), triplet (t), multiplet (m), doublet of doublets (dd), broad (br), and overlapped (o). Elemental analysis was conducted using a PERKIN-Elmer 240-C analyzer. ESI-MS measurements were performed on a Waters Quattro Micro triple quadrupole mass spectrometer, equipped with an electrospray ion source. MALDI-MS mass spectra were achieved by a Bruker SolariX XR Fourier transform ion cyclotron resonance mass spectrometer (Bruker Daltonik GmbH, Bremen, Germany) with a 7 T refrigerated actively shielded superconducting magnet (Bruker Biospin, Wissembourg, France). MALDI ion source (Bruker Daltonik GmbH, Bremen, Germany) was used in the samples in positive ion mode. The mass range was set to m/z 200–3000. The laser power was 28% and 22 laser shots were utilized for each scan. The mass spectra were calibrated externally using a mix of peptide clusters in MALDI ionization positive ion mode. A linear calibration was applied. The molar conductance of the ruthenium complexes was measured at room temperature by a Metrohm 712 Conductometer using freshly prepared 10^−3 M solutions in DMSO/H2O 90/10 solvent.

[2] = ABTS radical scavenging assay; conditions: for IC50: 5 min, room temperature, 730 nm
Description: To further analyze the Ru-NHC complexes antiradical potential, we examined their capability to interfere with the ABTS radical cation, a well-known protonated radical with a characteristic maximal absorbance at 730 nm, which diminishes with the scavenging of the radical proton. The assay measures radical scavenging by the electron donation. The outcomes in terms of ABTS% scavenging activity are reported in Figure 7 and IC50 values of Ru-NHC complexes, together with the standard Trolox, on ABTS radical are summarized in Table 3 and Table S3.
The radical scavenging properties of the Ru-NHC complexes on a 2,2′-azino-bis(3-ethylbenzothiazoline-6-sulfonate) radical cation (ABTS^•+) were calculated as described by Fazio et al., with few adjustments. Briefly, 2 mM ABTS and 70 mM potassium persulfate water solutions were mixed and incubated to obtain ABTS^•+ radical stock solution (16 h, room temperature, in the dark). ABTS solution was diluted in ethanol to obtain an absorbance of 0.70 ± 0.02 at 730 nm, prior to use. Then, 2 μL of each Ru-NHC complex at different concentrations, properly dissolved in DMSO, were mixed with 198 μL of the ABTS^•+ solution in a 48-well plate obtaining the following concentrations: 0.1, 1, 10, 50, and 100 µg/mL. The solutions were vigorously shaken and incubated (5 min, room temperature, in the dark). The ABTS scavenging activity was determined at 730 nm, using a microplate reader. The control was prepared mixing 2 μL of DMSO with 198 μL of the ABTS^•+ solution. The ABTS radical scavenging was expressed as inhibition percentages (%IABTS) of each complex compared to the control, according to the formula: %IABTS=A0−A/A0×100 where A0 is the absorbance at 730 nm of the control reaction and A is the absorbance at 730 nm in the presence of samples.
IC50 values for the Ru complexes were calculated from the %IABTS using GraphPad Prism 9 software (GraphPad Inc., San Diego, CA, USA). Trolox was employed as the positive control.

BALB/3T3 cells = assay: MTT assay, non-tumoral BALB/3T3 fibroblasts; assay type: cell-based; conditions: 72 h exposure, non-tumoral mouse embryonic fibroblasts
Description: Additionally, we investigated the selectivity of all the synthesized Ru-NHC complexes on the cancer cells by studying their capability to interfere with the growth of two non-tumoral cells, namely the MCF-10A and BALB/3T3 cells.
The adopted cells (breast cancer MCF-7 and MDA-MB-231 and human mammary epithelial MCF-10A cells) were purchased from American Type Culture Collection (ATCC, Manassas, VA, USA) and cultured as indicated. The mouse embryonic fibroblast BALB/3T3 and neuroblastoma SH-SY5Y were also obtained from American Type Culture Collection (ATCC, Manassas, VA, USA) and cultured in DMEM high glucose supplemented with 100 U mL^−1 penicillin/streptomycin and 10% bovine calf serum (BCS) or 10% fetal bovine serum (FBS), respectively.
MTT assay (Sigma Aldrich (St. Louis, MO, USA)) was used for the in vitro anticancer activity evaluation, as previously reported. The Ru-NHC complexes were employed at different concentrations (0.1–1–10–25–50–100 μM) for 72 h. The IC50 values were calculated from the percent (%) of control using GraphPad Prism 9 (GraphPad Software, La Jolla, CA, USA).

Row | SMILES | conductivity [1] | IC50 [2] [µM] | IC50 (BALB/3T3 cells) [µM] | ABTS IC50 fold lower than that of Trolox ([2]; IC50 ratio to Trolox)
1 | COC(Cn1ccn(C)[c]1=[Ru]([I])[I])c1ccccc1.Cc1ccc(C(C)C)cc1 (stereo not shown) [RANHC-II] | 13.1–44.2 μS cm^−1 | 16.1 ± 0.7 | > 100 | –
2 | COC(Cn1c(Cl)c(Cl)n(C)[c]1=[Ru]([Cl])[Cl])c1ccccc1.Cc1ccc(C(C)C)cc1 (stereo not shown) [RANHC-V] | close to zero | 11.4 ± 0.8 | > 100 | –
3 | COC(Cn1ccn(C)[c]1=[Ru]([Cl])[Cl])c1ccccc1.Cc1ccc(C(C)C)cc1 (stereo not shown) [RANHC-I] | close to zero | 13.5 ± 0.7 | > 100 | –
4 | CN1C=CN2CC(c3ccccc3)[O+](C)[Ru]([Cl])=[C]12.Cc1ccc(C(C)C)cc1.F[P-](F)(F)(F)(F)F (stereo not shown) [RANHC-III] | 6.3–25.6 μS cm^−1 | 5.53 ± 1.1 | > 100 | about 17 fold
5 | COC(Cn1ccn(C)[c]1=[Ru]1[O]C(=O)C(=O)[O]1)c1ccccc1.Cc1ccc(C(C)C)cc1 (stereo not shown) [RANHC-IV] | close to zero | 8.57 ± 1.1 | > 100 | –
6 | COC(Cn1[c](=[Ru]([Cl])[Cl])n(C)c2ccccc21)c1ccccc1.Cc1ccc(C(C)C)cc1 (stereo not shown) [RANHC-VI] | close to zero | 17.2 ± 1.1 | 39.1 ± 1.1 | –
